Measurements from patent US8202862B2, “Substituted piperidines” (Bayer Intellectual Property GmbH, priority 2009, dated 2012).

Tests used:
[1] = molecular target: T1, human protease activated receptor 1 (PAR1) (Homo sapiens, UniProt P25116); assay: Cellular functional in vitro test (PAR1 test cell, aequorin luminescence); format: cell-based; details: HEK293-derived PAR1 test cell; PAR1 agonist at EC50; calcium/aequorin luminescence
T1 construct: the cell stably expresses the endogenous human PAR1 receptor; endogenous in cells; host or cells: recombinant HEK293-derived cell line; only the mitochondrial aequorin is recombinant
T1 sequence (P25116 22-425): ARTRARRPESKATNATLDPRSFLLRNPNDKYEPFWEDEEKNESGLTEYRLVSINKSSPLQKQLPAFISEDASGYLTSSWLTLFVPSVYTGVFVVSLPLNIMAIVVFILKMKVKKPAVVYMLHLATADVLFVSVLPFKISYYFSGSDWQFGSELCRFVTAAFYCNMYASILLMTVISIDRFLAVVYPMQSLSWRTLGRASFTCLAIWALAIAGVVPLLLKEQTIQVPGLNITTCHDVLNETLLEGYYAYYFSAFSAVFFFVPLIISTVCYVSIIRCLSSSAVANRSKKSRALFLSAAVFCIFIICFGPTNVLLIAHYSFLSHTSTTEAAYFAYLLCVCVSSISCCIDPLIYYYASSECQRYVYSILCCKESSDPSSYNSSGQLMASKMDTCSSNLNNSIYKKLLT
Text: Cellular Functional in vitro Test
A recombinant cell line is used to identify […] of the human protease activated receptor 1 (PAR1) and to quantify the activity of the substances described herein. The cell is originally derived from a human embryonal kidney cell (HEK293; ATCC: American Type Culture Collection, Manassas, Va. 20108, U.S.A.). The test cell line constitutively expresses a modified form of the calcium-sensitive photoprotein aequorin which, after reconstitution with the cofactor coelenterazine, emits light when the free calcium concentration in the inner mitochondrial compartment is increased (Rizzuto R, Simpson A W, Brini M, Pozzan T.; Nature 1992, 358, 325-327). Additionally, the cell stably expresses the endogenous human PAR1 receptor and the endogenous purinergic receptor P2Y2. The resulting PAR1 test cell responds to stimulation of the endogenous PAR1 or P2Y2 receptor with an intracellular release of calcium ions, which can be quantified through the resulting aequorin luminescence with a suitable luminometer (Milligan G, Marshall F, Rees S, Trends in Pharmacological Sciences 1996, 17, 235-237).
For the testing of the substance specificity, the effect thereof after activation of the endogenous PAR1 receptor is compared with the effect after activation of the endogenous purinergic P2Y2 receptor which utilizes the same intracellular signal path.
Test procedure: The cells are plated out two days (48 hours) before the test in culture medium (DMEM F12, supplemented with 10% FCS, 2 mM glutamine, 20 mM HEPES, 1.4 mM pyruvate, 0.1 mg/ml gentamycin, 0.15% sodium bicarbonate; BioWhittaker Cat. # BE04-687Q; B-4800 Verviers, Belgium) in 384-well microtitre plates and kept in a cell incubator (96% atmospheric humidity, 5% v/v CO2, 37° C.). On the day of the test, the culture medium is replaced by a Tyrode's solution (in mM: 140 sodium chloride, 5 potassium chloride, 1 magnesium chloride, 2 calcium chloride, 20 glucose, 20 HEPES), which additionally contains the cofactor coelenterazine (25 μM) and glutathione (4 mM), and the microtitre plate is then incubated for a further 3-4 hours. The test substances are then pipetted onto the microtitre plate, and 5 minutes after the transfer of the test substances into the wells of the microtitre plate the plate is transferred into the luminometer, a PAR1 agonist concentration which corresponds to EC50 is added and the resulting light signal is immediately measured in the luminometer. To distinguish an antagonist substance action from a toxic action, the endogenous purinergic receptor is immediately subsequently activated with agonist (ATP, final concentration 10 μM) and the resulting light signal is measured.

[2] = tested on: platelet-rich plasma; assay: Platelet aggregation in plasma (triggered by thrombin receptor agonist TRAP6, SFLLRN; turbidimetry according to Born); format: cell-based; details: 10 min, human platelet-rich plasma, 10 min at 37° C.
Description: 1.c) Platelet Aggregation in Plasma
Platelet aggregation is determined using blood from healthy volunteers of both genders, who had not received any thrombocyte aggregation-influencing medication for the last ten days. The blood is taken up into monovettes (Sarstedt, Nümbrecht, Germany) which contain, as anticoagulant, sodium citrate 3.8% (1 part citrate+9 parts blood). To obtain platelet-rich plasma, the citrated whole blood is centrifuged at 140 g for 20 min.
For the aggregation measurements, aliquots of the platelet-rich plasma with increasing concentrations of test substance are incubated at 37° C. for 10 min. Subsequently, aggregation is triggered by addition of a thrombin receptor agonist (TRAP6, SFLLRN) in an aggregometer and determined at 37° C. by means of the turbidimetry method according to Born (Born, G. V. R., Cross M. J., The Aggregation of Blood Platelets; J. Physiol. 1963, 168, 178-195). The SFLLRN concentration leading to maximum aggregation is, if appropriate, determined individually for each donor.
To calculate the inhibitory effect, the maximum increase in light transmission (amplitude of the aggregation curve in %) is determined within 5 minutes after addition of the agonist in the presence and absence of test substance, and the inhibition is calculated. The inhibition curves are used to calculate the concentration which inhibits aggregation by 50%.

Row | Compound | IC50 [1] [nM] | IC50 [2] [nM]
1 | COCCc1noc(C2CC(c3ccc(OC(F)(F)F)cc3)CN(C(=O)N3CC[S+]([O-])CC3)C2)n1 (racemic) [Example 1, {3-[3-(2-Methoxyethyl)-1,2,4-oxadiazol-5-yl]-5-[4-(trifluoromethoxy)phenyl]piperidin-1-yl}-(oxidothiomorpholin-4-yl)methanone] | 43 | –
2 | O=C(N1CC[S+]([O-])CC1)N1CC(c2ccc(C(F)(F)F)cc2)CC(c2nc(C3CC3)no2)C1 (racemic) [Example 20, {3-(3-Cyclopropyl-1,2,4-oxadiazol-5-yl)-5-[4-(trifluoromethyl)phenyl]piperidin-1-yl}(1-oxidothio-morpholin-4-yl)methanone] | 23 | –
3 | COC1(c2noc(C3CC(c4ccc(CC(F)(F)F)cc4)CN(C(=O)N4CCS(=O)(=O)CC4)C3)n2)CC1 (racemic) [Example 61, (1,1-Dioxidothiomorpholin-4-yl){3-[3-(1-methoxycyclopropyl)-1,2,4-oxadiazol-5-yl]-5-[4-(2,2,2-trifluoroethyl)phenyl]piperidin-1-yl}methanone] | 15.7 | –
4 | COCCc1noc(C2CC(c3ccc(OC(F)(F)F)cc3)CN(C(=O)N3CCS(=O)(=O)CC3)C2)n1 (single isomer, unassigned) [Example 8, (1,1-Dioxidothiomorpholin-4-yl){3-[3-(2-methoxyethyl)-1,2,4-oxadiazol-5-yl]-5-[4-(trifluoromethoxy)phenyl]piperidin-1-yl}methanone] | 33 | 0.29
5 | O=C(N1CCS(=O)(=O)CC1)N1CC(c2ccc(OC(F)(F)F)cc2)CC(c2nc(C3CC3)no2)C1 (single isomer, unassigned) [Example 10, {3-(3-Cyclopropyl-1,2,4-oxadiazol-5-yl)-5-[4-(trifluoromethoxy)phenyl]piperidin-1-yl}(1,1-dioxidothiomorpholin-4-yl)methanone] | 8 | 0.49
6 | CCc1ccc(C2CC(c3nc(C4CC4)no3)CN(C(=O)N3CCS(=O)(=O)CC3)C2)cc1 (single isomer, unassigned) [Example 15, [3-(3-Cyclopropyl-1,2,4-oxadiazol-5-yl)-5-(4-ethylphenyl)piperidin-1-yl](1,1-dioxidothiomorpholin-4-yl)methanone] | 5.1 | –
7 | CCOCCc1noc(C2CC(c3ccc(C(F)(F)F)cc3)CN(C(=O)N3CCS(=O)(=O)CC3)C2)n1 (single isomer, unassigned) [Example 31, (1,1-Dioxidothiomorpholin-4-yl){3-[3-(2-ethoxyethyl)-1,2,4-oxadiazol-5-yl]-5-[4-(trifluoromethyl)phenyl]piperidin-1-yl}methanone] | 32 | –
8 | CC(F)(F)c1ccc(C2CC(c3nc(C4CC4)no3)CN(C(=O)N3CC[S+]([O-])CC3)C2)cc1 (single isomer, unassigned) [Example 52, {3-(3-Cyclopropyl-1,2,4-oxadiazol-5-yl)-5-[4-(1,1-difluoroethyl)phenyl]piperidin-1-yl}-(1-oxido-thiomorpholin-4-yl)methanone] | 4.7 | 0.58
9 | CC(F)(F)c1ccc(C2CC(c3nc(C4CC4)no3)CN(C(=O)N3CCS(=O)(=O)CC3)C2)cc1 (single isomer, unassigned) [Example 54, {3-(3-Cyclopropyl-1,2,4-oxadiazol-5-yl)-5-[4-(1,1-difluoroethyl)phenyl]piperidin-1-yl}-(1,1-dioxidothiomorpholin-4-yl)methanone] | 4.3 | –
10 | CCc1ccc(C2CC(c3nc(CCOC)no3)CN(C(=O)N3CCS(=O)(=O)CC3)C2)cc1 (stereo not shown) [Example 13, (1,1-Dioxidothiomorpholin-4-yl){3-(4-ethylphenyl)-5-[3-(2-methoxyethyl)-1,2,4-oxadiazol-5-yl]-piperidin-1-yl}methanone] | – | 0.17
